{
  "source": "patent US20240317777A1",
  "about": "“NOVEL MACROCYCLIC AMINOPYRAZOLE COMPOUNDS AS CDK2 INHIBITORS” (Accutar Biotechnology Inc., priority 2023, published 2024)",
  "key": {"[1]": {"test_system": "CCNE1-amplified OVCAR3 cells", "assay": "Cell growth inhibition of CCNE1-amplified OVCAR3 cells (CellTiter-Glo)", "assay_type": "cell-based", "settings": "Homo sapiens, OVCAR-3, 144 h, 6 days", "procedure,_shortened": "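Growth read-out was CellTiter-Glo luminescence, taken after 10 min at room temperature at the end of a 6-day compound exposure at 37 °C. Compounds were diluted from DMSO stocks across various concentrations.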"}, "[2]": {"target": "CDK1-CYCLIN B (Homo sapiens, UniProt P06493)", "sequence (P06493 whole entry)": "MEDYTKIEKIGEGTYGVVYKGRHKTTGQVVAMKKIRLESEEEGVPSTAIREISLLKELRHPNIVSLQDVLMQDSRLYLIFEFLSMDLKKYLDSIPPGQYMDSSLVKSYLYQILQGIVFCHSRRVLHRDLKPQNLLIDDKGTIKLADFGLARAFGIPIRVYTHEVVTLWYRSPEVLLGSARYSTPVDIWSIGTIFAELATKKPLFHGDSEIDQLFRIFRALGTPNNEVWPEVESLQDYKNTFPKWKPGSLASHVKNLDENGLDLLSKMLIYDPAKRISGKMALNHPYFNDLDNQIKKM", "sequence (P14635 whole entry partner)": "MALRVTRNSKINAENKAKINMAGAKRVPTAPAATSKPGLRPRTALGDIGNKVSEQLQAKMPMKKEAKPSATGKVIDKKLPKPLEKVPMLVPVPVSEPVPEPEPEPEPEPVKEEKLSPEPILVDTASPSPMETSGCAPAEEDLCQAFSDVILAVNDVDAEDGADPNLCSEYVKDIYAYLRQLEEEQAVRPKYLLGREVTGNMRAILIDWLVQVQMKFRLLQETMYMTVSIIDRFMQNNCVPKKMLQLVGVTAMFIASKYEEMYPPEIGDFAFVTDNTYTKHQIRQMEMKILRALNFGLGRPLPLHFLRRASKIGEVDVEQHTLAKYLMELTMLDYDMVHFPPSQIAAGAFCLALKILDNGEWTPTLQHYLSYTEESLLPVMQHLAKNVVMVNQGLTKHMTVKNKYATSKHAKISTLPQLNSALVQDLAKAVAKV", "assay": "CDK protein kinase inhibition by ADP-Glo assay, CDK1-CYCLIN B", "assay_type": "biochemical", "settings": "for IC50: read-out: CDK1-CYCLINB, IC50; for CDK2 Fold selectivity against CDK1: fold selectivity for CDK2 over CDK1, recombinant CDK kinases", "procedure,_shortened": "(§1)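 Human CDK/cyclin complexes phosphorylated peptide substrates at 22° C in 100 mM HEPES pH 7.5 with 5 mM MgCl2, 1 mM DTT, 0.1% BSA, 0.01% Triton X-100 and 1000 μM ATP (1% DMSO). ADP formed was detected by ADP-Glo luminescence.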"}, "[3]": {"target": "CDK4-CYCLIN D1 (Homo sapiens, UniProt P11802)", "sequence (P11802 whole entry)": "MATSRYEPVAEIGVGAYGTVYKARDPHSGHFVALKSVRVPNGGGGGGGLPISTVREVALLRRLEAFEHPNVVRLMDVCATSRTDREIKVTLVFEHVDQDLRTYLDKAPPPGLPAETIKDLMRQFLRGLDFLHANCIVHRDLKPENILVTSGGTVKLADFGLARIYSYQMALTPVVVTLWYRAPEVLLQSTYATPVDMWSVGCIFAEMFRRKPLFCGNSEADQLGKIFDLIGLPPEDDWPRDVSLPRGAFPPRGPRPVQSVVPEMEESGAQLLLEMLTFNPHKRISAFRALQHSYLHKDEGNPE", "sequence (P24385 whole entry partner)": "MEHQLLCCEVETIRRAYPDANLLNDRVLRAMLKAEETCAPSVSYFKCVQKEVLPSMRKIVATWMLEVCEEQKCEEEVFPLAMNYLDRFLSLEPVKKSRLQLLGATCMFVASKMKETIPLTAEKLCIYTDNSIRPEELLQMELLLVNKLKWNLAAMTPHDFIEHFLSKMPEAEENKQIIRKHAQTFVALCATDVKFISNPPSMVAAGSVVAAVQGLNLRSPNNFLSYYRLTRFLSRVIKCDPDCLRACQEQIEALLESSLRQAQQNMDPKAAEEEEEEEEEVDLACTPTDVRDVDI", "assay": "CDK protein kinase inhibition by ADP-Glo assay, CDK4-CYCLIN D1", "assay_type": "biochemical", "settings": "for IC50: read-out: CDK4-CYCLIND1, IC50; for CDK2 Fold selectivity against CDK4: fold selectivity for CDK2 over CDK4, recombinant CDK kinases", "procedure,_shortened": "as §1"}, "[4]": {"target": "CDK9-CYCLIN T1 (Homo sapiens, UniProt P50750)", "sequence (P50750 whole entry)": "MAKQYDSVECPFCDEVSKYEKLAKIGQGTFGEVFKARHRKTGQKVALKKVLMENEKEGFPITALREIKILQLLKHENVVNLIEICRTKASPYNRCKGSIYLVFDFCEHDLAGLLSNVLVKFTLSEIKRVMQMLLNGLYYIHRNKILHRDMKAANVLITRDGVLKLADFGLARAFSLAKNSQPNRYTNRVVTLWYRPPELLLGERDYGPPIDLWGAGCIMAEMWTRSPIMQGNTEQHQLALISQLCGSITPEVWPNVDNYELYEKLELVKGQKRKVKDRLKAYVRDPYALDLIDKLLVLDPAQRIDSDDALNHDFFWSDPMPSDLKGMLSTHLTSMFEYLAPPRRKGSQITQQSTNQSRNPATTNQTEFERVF", "sequence (O60563 whole entry partner)": "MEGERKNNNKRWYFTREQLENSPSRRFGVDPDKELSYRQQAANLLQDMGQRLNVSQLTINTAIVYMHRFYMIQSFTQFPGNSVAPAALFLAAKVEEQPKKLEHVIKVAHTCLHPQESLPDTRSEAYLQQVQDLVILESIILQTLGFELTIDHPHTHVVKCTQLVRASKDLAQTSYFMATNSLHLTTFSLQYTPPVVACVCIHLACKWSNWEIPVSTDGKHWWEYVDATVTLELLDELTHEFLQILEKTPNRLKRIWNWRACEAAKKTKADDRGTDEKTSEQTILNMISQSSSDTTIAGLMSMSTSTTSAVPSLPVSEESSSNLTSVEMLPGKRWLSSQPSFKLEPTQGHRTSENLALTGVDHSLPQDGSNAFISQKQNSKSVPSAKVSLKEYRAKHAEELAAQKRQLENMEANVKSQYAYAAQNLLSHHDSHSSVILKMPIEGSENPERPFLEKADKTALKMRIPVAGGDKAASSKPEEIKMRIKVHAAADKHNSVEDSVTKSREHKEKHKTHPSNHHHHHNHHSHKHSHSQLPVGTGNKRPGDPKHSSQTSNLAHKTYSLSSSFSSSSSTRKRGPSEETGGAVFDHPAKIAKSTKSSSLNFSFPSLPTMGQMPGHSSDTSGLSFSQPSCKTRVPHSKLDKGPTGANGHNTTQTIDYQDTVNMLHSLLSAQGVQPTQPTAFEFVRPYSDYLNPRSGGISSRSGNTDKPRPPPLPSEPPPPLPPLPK", "assay": "CDK protein kinase inhibition by ADP-Glo assay, CDK9-CYCLIN T1", "assay_type": "biochemical", "settings": "for IC50: read-out: CDK9-CYCLINT1, IC50; for CDK2 Fold selectivity against CDK9: fold selectivity for CDK2 over CDK9, recombinant CDK kinases", "procedure,_shortened": "as §1"}, "[5]": {"test_system": "CCNE1-normal SKOV3 cells", "assay": "Cell growth inhibition of CCNE1-normal SKOV3 cells (CellTiter-Glo)", "assay_type": "cell-based", "settings": "Homo sapiens, SK-OV-3, 144 h, 6 days", "procedure,_shortened": "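Growth was measured by CellTiter-Glo luminescence after 6 days' compound exposure at 37 °C. Cells were plated one day before dosing at 1000 per well in medium with 10% FBS, and compounds were diluted from DMSO stocks.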"}, "[6]": {"target": "CDK2-CYCLIN E1 (Homo sapiens, UniProt P24941)", "assay": "CDK protein kinase inhibition by ADP-Glo assay, CDK2-CYCLIN E1", "assay_type": "biochemical", "settings": "read-out: CDK2-CYCLINE, IC50", "procedure,_shortened": "as §1"}, "[7]": {"target": "CDK6-CYCLIN D3 (Homo sapiens, UniProt Q00534)", "sequence (Q00534 whole entry)": "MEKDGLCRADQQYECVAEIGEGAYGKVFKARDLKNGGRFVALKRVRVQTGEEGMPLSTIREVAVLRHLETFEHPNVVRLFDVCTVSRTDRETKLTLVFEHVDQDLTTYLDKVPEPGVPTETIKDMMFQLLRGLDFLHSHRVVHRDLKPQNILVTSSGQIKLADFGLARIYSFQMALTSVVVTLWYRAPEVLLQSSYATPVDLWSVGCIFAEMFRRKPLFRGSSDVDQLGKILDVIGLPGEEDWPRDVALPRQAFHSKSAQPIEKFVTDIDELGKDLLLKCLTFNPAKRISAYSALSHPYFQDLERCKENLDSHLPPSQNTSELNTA", "sequence (P30281 whole entry partner)": "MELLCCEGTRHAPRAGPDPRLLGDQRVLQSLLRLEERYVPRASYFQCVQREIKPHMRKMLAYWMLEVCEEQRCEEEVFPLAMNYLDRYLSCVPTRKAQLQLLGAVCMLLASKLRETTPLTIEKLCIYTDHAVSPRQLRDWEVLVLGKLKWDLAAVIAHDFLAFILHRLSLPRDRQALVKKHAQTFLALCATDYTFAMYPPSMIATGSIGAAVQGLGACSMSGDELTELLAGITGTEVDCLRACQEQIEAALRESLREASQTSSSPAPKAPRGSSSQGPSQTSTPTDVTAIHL", "assay": "CDK protein kinase inhibition by ADP-Glo assay, CDK6-CYCLIN D3", "assay_type": "biochemical", "settings": "for IC50: read-out: CDK6-CYCLIND3, IC50; for CDK2 Fold selectivity against CDK6: fold selectivity for CDK2 over CDK6, recombinant CDK kinases", "procedure,_shortened": "as §1"}, "[8]": {"test_system": "Phospho-Rb (Ser807/811) in OVCAR3 cells", "assay": "Phospho-Rb expression inhibition in OVCAR3 cells quantified by In Cell Western", "assay_type": "cell-based", "settings": "Homo sapiens, OVCAR-3, 24 hours, read-out: OVCAR-3 pRb IC50", "procedure,_shortened": "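In-cell western: after 24 h compound exposure at 37° C, fixed OVCAR3 cells co-stained for pRb Ser807/811 (800 nm channel) and total Rb (680 nm channel), imaged by LI-COR Odyssey.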"}, "[9]": {"settings": "Table 35, recombinant CDK kinase"}, "[10]": {"settings": "Table 37, recombinant CDK kinase"}},
  "note": "Like-named read-outs stand apart in the source and are kept apart here.",
  "data": [
    {"smiles": "C[C@H]1CCCOc2cc(ccn2)Nc2[nH]nc(c2F)[C@H]2CC[C@H](C2)OC(=O)N1", "note": "[Compound 183, (1^1S,1^3R,9S,E)-2^4-fluoro-9-methyl-2^1H-5,12-dioxa-3,10-diaza-4(4,2)-pyridina-2(3,5)-pyrazola-1(1,3)-cyclopentanacyclododecaphan-11-one]", "values": [
      {"measurement": "IC50", "setting": "[1]", "value": "50 to 250", "unit": "nM"},
      {"measurement": "IC50", "setting": "[2]; ADP-Glo, 1000 μM ATP, Table 33", "value": "> 500", "unit": "nM"},
      {"measurement": "CDK2 Fold selectivity against CDK1", "setting": "[2]; Table 34", "value": "D (D, >20 and ≤50)"},
      {"measurement": "IC50", "setting": "[3]; ADP-Glo, 1000 μM ATP, Table 33", "value": "> 500", "unit": "nM"},
      {"measurement": "CDK2 Fold selectivity against CDK4", "setting": "[3]; Table 34", "value": "C (C, >50 and ≤100)"},
      {"measurement": "IC50", "setting": "[4]; ADP-Glo, 1000 μM ATP, Table 33", "value": "> 500", "unit": "nM"},
      {"measurement": "CDK2 Fold selectivity against CDK9", "setting": "[4]; Table 34", "value": "B (B, >100 and ≤500)"},
      {"measurement": "IC50", "setting": "[5]", "value": "> 1250", "unit": "nM"},
      {"measurement": "IC50", "setting": "[6]; ADP-Glo, 1000 μM ATP, Table 33", "value": "10 to 50", "unit": "nM"},
      {"measurement": "IC50", "setting": "[7]; ADP-Glo, 1000 μM ATP, Table 33", "value": "> 500", "unit": "nM"},
      {"measurement": "CDK2 Fold selectivity against CDK6", "setting": "[7]; Table 34", "value": "C (C, >50 and ≤100)"},
      {"measurement": "IC50", "setting": "[8]", "value": "10 to 50", "unit": "nM"}
    ]},
    {"smiles": "C[C@H]1CC(F)(F)COc2cc(ccn2)Nc2cc(n[nH]2)[C@H]2CC[C@H](C2)OC(=O)N1", "note": "[Compound 223, (1^1S,1^3R,9S,Z)-7,7-difluoro-9-methyl-2^1H-5,12-dioxa-3,10-diaza-4(4,2)-pyridina-2(3,5)-pyrazola-1(1,3)-cyclopentanacyclododecaphan-11-one]", "values": [
      {"measurement": "IC50", "setting": "[1]", "value": "10 to 50", "unit": "nM"},
      {"measurement": "IC50", "setting": "[2]; [9]", "value": "50 to 100", "unit": "nM"},
      {"measurement": "CDK2 Fold selectivity against CDK1", "setting": "[2]; Table 36", "value": "E (E, <20)"},
      {"measurement": "IC50", "setting": "[3]; [9]", "value": "100 to 500", "unit": "nM"},
      {"measurement": "CDK2 Fold selectivity against CDK4", "setting": "[3]; Table 36", "value": "C (C, >50 and ≤100)"},
      {"measurement": "IC50", "setting": "[4]; [9]", "value": "100 to 500", "unit": "nM"},
      {"measurement": "CDK2 Fold selectivity against CDK9", "setting": "[4]; Table 36", "value": "C (C, >50 and ≤100)"},
      {"measurement": "IC50", "setting": "[5]", "value": "250 to 1250", "unit": "nM"},
      {"measurement": "IC50", "setting": "[6]; [9]", "value": "≤ 10", "unit": "nM"},
      {"measurement": "IC50", "setting": "[7]; [9]", "value": "100 to 500", "unit": "nM"},
      {"measurement": "CDK2 Fold selectivity against CDK6", "setting": "[7]; Table 36", "value": "C (C, >50 and ≤100)"},
      {"measurement": "IC50", "setting": "[8]", "value": "2 to 10", "unit": "nM"}
    ]},
    {"smiles": "C[C@H]1CCCOc2cc(ccn2)Nc2cc(n[nH]2)[C@H]2C[C@@H](F)[C@H](C2)OC(=O)N1", "note": "[Compound 224, (1^1R,1^3S,1^4R,9S,Z)-1^4-fluoro-9-methyl-2^1H-5,12-dioxa-3,10-diaza-4(4,2)-pyridina-2(3,5)-pyrazola-1(1,3)-cyclopentanacyclododecaphan-11-one]", "values": [
      {"measurement": "IC50", "setting": "[1]", "value": "10 to 50", "unit": "nM"},
      {"measurement": "IC50", "setting": "[2]; [9]", "value": "10 to 50", "unit": "nM"},
      {"measurement": "CDK2 Fold selectivity against CDK1", "setting": "[2]; Table 36", "value": "E (E, <20)"},
      {"measurement": "IC50", "setting": "[3]; [9]", "value": "100 to 500", "unit": "nM"},
      {"measurement": "CDK2 Fold selectivity against CDK4", "setting": "[3]; Table 36", "value": "C (C, >50 and ≤100)"},
      {"measurement": "IC50", "setting": "[4]; [9]", "value": "> 500", "unit": "nM"},
      {"measurement": "CDK2 Fold selectivity against CDK9", "setting": "[4]; Table 36", "value": "B (B, >100 and ≤500)"},
      {"measurement": "IC50", "setting": "[5]", "value": "> 1250", "unit": "nM"},
      {"measurement": "IC50", "setting": "[6]; [9]", "value": "≤ 10", "unit": "nM"},
      {"measurement": "IC50", "setting": "[7]; [9]", "value": "100 to 500", "unit": "nM"},
      {"measurement": "CDK2 Fold selectivity against CDK6", "setting": "[7]; Table 36", "value": "C (C, >50 and ≤100)"},
      {"measurement": "IC50", "setting": "[8]", "value": "2 to 10", "unit": "nM"}
    ]},
    {"smiles": "C[C@H]1CCCOc2cc(ccn2)Nc2cc(n[nH]2)[C@@H]2C[C@H](F)[C@@H](C2)OC(=O)N1", "note": "[Compound 225, (1^1S,1^3R,1^4S,9S,Z)-1^4-fluoro-9-methyl-2^1H-5,12-dioxa-3,10-diaza-4(4,2)-pyridina-2(3,5)-pyrazola-1(1,3)-cyclopentanacyclododecaphan-11-one]", "values": [
      {"measurement": "IC50", "setting": "[1]", "value": "10 to 50", "unit": "nM"},
      {"measurement": "IC50", "setting": "[2]; [9]", "value": "≤ 10", "unit": "nM"},
      {"measurement": "CDK2 Fold selectivity against CDK1", "setting": "[2]; Table 36", "value": "E (E, <20)"},
      {"measurement": "IC50", "setting": "[3]; [9]", "value": "10 to 50", "unit": "nM"},
      {"measurement": "CDK2 Fold selectivity against CDK4", "setting": "[3]; Table 36", "value": "E (E, <20)"},
      {"measurement": "IC50", "setting": "[4]; [9]", "value": "10 to 50", "unit": "nM"},
      {"measurement": "CDK2 Fold selectivity against CDK9", "setting": "[4]; Table 36", "value": "E (E, <20)"},
      {"measurement": "IC50", "setting": "[5]", "value": "250 to 1250", "unit": "nM"},
      {"measurement": "IC50", "setting": "[6]; [9]", "value": "≤ 10", "unit": "nM"},
      {"measurement": "IC50", "setting": "[7]; [9]", "value": "10 to 50", "unit": "nM"},
      {"measurement": "CDK2 Fold selectivity against CDK6", "setting": "[7]; Table 36", "value": "E (E, <20)"},
      {"measurement": "IC50", "setting": "[8]", "value": "2 to 10", "unit": "nM"}
    ]},
    {"smiles": "C[C@H]1CC(F)(F)COc2cc(ccn2)Nc2[nH]nc(c2F)[C@H]2CC[C@H](C2)OC(=O)N1", "note": "[Compound 244, (1^1S,1^3R,9S,E)-2^4,7,7-trifluoro-9-methyl-2^1H-5,12-dioxa-3,10-diaza-4(4,2)-pyridina-2(3,5)-pyrazola-1(1,3)-cyclopentanacyclododecaphan-11-one]", "values": [
      {"measurement": "IC50", "setting": "[1]", "value": "50 to 250", "unit": "nM"},
      {"measurement": "IC50", "setting": "[2]; [10]", "value": "100 to 500", "unit": "nM"},
      {"measurement": "CDK2 Fold selectivity against CDK1", "setting": "[2]; Table 38", "value": "D (D, >20 and ≤50)"},
      {"measurement": "IC50", "setting": "[3]; [10]", "value": "> 500", "unit": "nM"},
      {"measurement": "CDK2 Fold selectivity against CDK4", "setting": "[3]; Table 38", "value": "B (B, >100 and ≤500)"},
      {"measurement": "IC50", "setting": "[4]; [10]", "value": "> 500", "unit": "nM"},
      {"measurement": "CDK2 Fold selectivity against CDK9", "setting": "[4]; Table 38", "value": "A (A, ≥500)"},
      {"measurement": "IC50", "setting": "[5]", "value": "> 1250", "unit": "nM"},
      {"measurement": "IC50", "setting": "[6]; [10]", "value": "≤ 10", "unit": "nM"},
      {"measurement": "IC50", "setting": "[7]; [10]", "value": "> 500", "unit": "nM"},
      {"measurement": "CDK2 Fold selectivity against CDK6", "setting": "[7]; Table 38", "value": "B (B, >100 and ≤500)"},
      {"measurement": "IC50", "setting": "[8]", "value": "10 to 50", "unit": "nM"}
    ]}
  ]
}
